In patent US7704686B2, “Methods of identifying immunoregulatory agents, immunoregulatory agents, and uses thereof” (Toudai TLO, Ltd., priority 2003, dated 2010):

Legend:
Assay type in all cases: cell-based, human
CD86 = experiment: Flow cytometry of surface CD86 on TT-loaded monocytes stimulated with CD26-coated beads; settings: siRNA-transfected monocytes, stimulated with CD26 wt-coated beads
Experimental: Freshly purified monocytes were cultured in Macrophage-SFM media for 24 h to diminish the effect of serum, and were preincubated with TT at a concentration of 0.5 μg/ml for an additional 24 h. After being washed with PBS, 1.0×10^6 of TT-loaded monocytes were stimulated for indicated periods with […] particles of polystyrene latex beads (Molecular Probes) coated with rsCD26 wt or rsCD26 del 201-211 (1.0 μg/ml). Stimulated monocytes were subjected to confocal laser microscopy, immunoprecipitation assay, Western blotting analysis, or flow cytometry (FCM).
In experiments assessing the expression of CD86 on purified monocytes after preincubation with or without TT (0.5 μg/ml) for 24 hours, following incubation with rsCD26-coated beads for 24 h, FITC-conjugated CD86 mAb (10 μg/ml) were used with PE-conjugated anti-CD14 (10 μg/ml) and Cy Chrome-conjugated CD45 (10 μg/ml) to gate exclusively on the monocyte population. In experiments assessing the effect of siRNA against caveolin-1 in monocytes, purified monocytes were transfected with siRNA as described below, following incubation with rsCD26-coated beads for 24 h, and stained as described above.
(§1) Flow-cytometric analysis of 10,000 viable cells was conducted on Becton-Dickinson FACScalibur. Each experiment was repeated at least three times, and the results were provided in the form of a histogram of a representative experiment, or increased mean percent±standard error (SE) of mean-fluorescent intensity (MFI), compared to control or untreated cells.
To design target-specific siRNA duplexes, the present inventors selected sequences of the type AA(N19) (N, any nucleotide) from the open reading frame of human caveolin-1 (accession number=NM 001753) (Elbashir, et al., 2001). Moreover, the inventors added the sequences to the 2-nucleotide 3′ overhangs of 2′-deoxythymidine (dTdT), in order to generate a symmetric duplex with respect to the sequence composition of the sense and antisense 3′ overhangs. […]

caveolin-1 = experiment: Western blot of caveolin-1 in siRNA-transfected monocytes; settings: 48 hrs after transfection, HVJ-E vector
Experimental: Lysates were generated with RIPA lysis buffer (1% NP-40, 0.5% sodium deoxycholate, 0.1% SDS, 5 mM EDTA, 10 mM Tris-HCl (pH 7.4), 0.15 M NaCl, 1 mM PMSF, 0.5 mM NaF, 10 μg/ml aprotinin and 0.02 mM Na3VO4) from 1.0×10^7 of THP-1 cells incubated with recombinant soluble CD26 (rsCD26) or 1.0×10^7 of TT-loaded monocytes stimulated with rsCD26-coated beads. Then, lysates were clarified by 15,000×g for 30 min. Immunoprecipitates (IPs) were performed by incubating lysates with 2 μg of control immunoglobulins (Ig) and protein G-sepharose beads (Amersham Pharmacia) at 4° C. for 1 h. After centrifugation, supernatants were incubated with 2 μg of specific Ig at 4° C. for 2 h, followed by addition of protein G-sepharose beads for an overnight incubation. After washing four times with RIPA lysis buffer, beads were submitted to SDS-PAGE and Western blot analysis.
To design target-specific siRNA duplexes, the present inventors selected sequences of the type AA(N19) (N, any nucleotide) from the open reading frame of human caveolin-1 (accession number=NM 001753) (Elbashir, et al., 2001). Moreover, the inventors added the sequences to the 2-nucleotide 3′ overhangs of 2′-deoxythymidine (dTdT), in order to generate a symmetric duplex with respect to the sequence composition of the sense and antisense 3′ overhangs. These symmetric 3′ overhangs were reported to help to ensure that the siRNA were formed with approximately equal ratios of sense and antisense target RNA-cleaving siRNA (Elbashir, et al., 2001). Therefore, the present inventors selected two target sequences from 81 to 101 (ss1) and […] (ss2) downstream of the start codon of caveolin-1 mRNA (sense1 siRNA (ss1-siRNA): 5′[…] CAGACdTdT (SEQ ID NO: 6), and sense2 siRNA (ss2-siRNA): 5′ AAGGAGA […] dTdT (SEQ ID NO: 7)). Moreover, mis-siRNA at 4 nucleotides was prepared to examine non-specific effects of siRNA duplexes (mis-siRNA: 5′ […] GCAGACdTdT (SEQ ID NO: 8)). To visualize the efficiency of transfection, the inventors also prepared Texas red-conjugated missense siRNA (mis-siRNA-TR). […]

[1] = system: caveolin-1 on cell surface of monocytes; experiment: Flow cytometric detection of cell surface caveolin-1 on monocytes; settings: Filipin 1.0 μg/ml preincubation 30 min, then with or without TT
Experimental: For assessment of cell surface caveolin-1 exposure, after purified monocytes were treated with TT (0.5 μg/ml) for 0, 6, 12, 24, and 48 h, cells were washed with ice-cold PBS three times, and stained with anti-caveolin-1 antibody (5 μg/ml) for 60 min at 4° C., followed by staining with FITC conjugated anti-rabbit Ig antibody (1:200) for 60 min at 4° C. To disturb caveolae, purified monocytes were treated with Filipin (1.0 μg/ml, Sigma-Aldrich) for 30 min at 37° C. Cells were then subjected to TT loading and to staining caveolin-1 as described above.
as §1

[2] = system: conjugation of activated T cells and TT-loaded monocytes; experiment: T cell-APC conjugation assay; settings: monocytes preincubated with Filipin 30 min, then with or without TT
Experimental: For T cell-APC conjugation assay as described elsewhere (Lee, et al., 2002), 1.0×10^5 of activated T cells were mixed with 1.0×10^5 of purified monocytes that had been pulsed with or without TT (0.5 μg/ml for indicated time periods), with further centrifugation. Thirty minutes later, cell mixtures were attached to microslide glass (Matsunami Glass Inc., Tokyo, Japan) coated with poly-L-lysine, and fixed with 4% paraformaldehyde in PBS for 15 min at room temperature. Cells were blocked with mouse and rabbit Ig isotypes (1 μg/ml) for 30 min at 4° C., followed by incubation with anti-CD26 mAb and anti-caveolin-1 rabbit pAb (each of 10 μg/ml) for 60 min at 4° C., then washed with ice-cold PBS twice and incubated with FITC conjugated anti-mouse Ig and Texas red conjugated anti-rabbit Ig antibodies (1:200) for 60 min at 4° C. Cells were mounted in coverslips with Antifade Prolong kit. Conjugates were first identified by direct observation under differential interference contrast and then confirmed by detecting the green fluorescence of anti-CD26 mAb in T cells and the red fluorescence of anti-caveolin-1 pAb in monocytes. The proportion of T cell-APC conjugation was calculated by random choice of 500 different cells in a coverslips from five independent experiments. […]

| Compound | effect on CD86 upregulation in TT-loaded monocytes (CD86) | caveolin-1 expression in monocytes (knock down) (caveolin-1) | caveolin-1 on cell surface of monocytes [1] | T cell-monocyte cell conjugation [2] |
| --- | --- | --- | --- | --- |
| 5′ AAGGAGA UCGACCUGGUCAAC dTdT [ss2] | inhibited | effectively knocked down |  |  |
| 5′AACAACAAGGCCAUGG CAGACdTdT [ss1] | inhibited | effectively knocked down |  |  |
| 5′ UACAAGAAGGGCAUG GCAGACdTdT [mismatched siRNA] | did not exhibit this inhibitory effect | not significantly knocked down |  |  |
| CCCCC[C@@H](O)[C@H]1C(=O)O[C@H](C)[C@@H](O)/C=C/C=C/C=C/C=C/C=C(\C)[C@@H](O)C[C@H](O)C[C@H](O)C[C@H](O)C[C@H](O)C[C@H](O)C[C@@H]1O [Filipin] |  |  | not detected | not detected |
